Experiment [1] has as its target T1, aldo-keto reductase 1C3 (AKR1C3) (Homo sapiens, UniProt P42330).
T1 construct: human recombinant AKR1C3 from E. coli BL21(DE3), HisTrap purified
T1 sequence (P42330 1-323): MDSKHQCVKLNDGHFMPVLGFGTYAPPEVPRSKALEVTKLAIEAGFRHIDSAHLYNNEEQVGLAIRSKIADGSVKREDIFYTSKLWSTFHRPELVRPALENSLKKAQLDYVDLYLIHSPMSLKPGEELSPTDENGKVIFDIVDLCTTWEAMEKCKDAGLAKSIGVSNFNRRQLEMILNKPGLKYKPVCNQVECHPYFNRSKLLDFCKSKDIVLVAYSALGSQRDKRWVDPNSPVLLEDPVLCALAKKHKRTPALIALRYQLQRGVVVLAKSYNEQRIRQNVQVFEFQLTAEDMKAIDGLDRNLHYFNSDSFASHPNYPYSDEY
Description: reduction to daunorubicinol by recombinant enzyme (DAUN […]), UHPLC, Michaelis-Menten kinetics. Type of experiment: biochemical.

For experiment [2], the target named is T1, aldo-keto reductase 1C3 (AKR1C3). As to the kind of experiment: inhibition of daunorubicin reduction by recombinant enzyme, UHPLC of DAUN-OL, Michaelis-Menten/Lineweaver-Burk. The experiment is classed as biochemical.

The structures appear in SMILES notation.

For the molecule `COc1cccc2c1C(=O)c1c(O)c3c(c(O)c1C2=O)C[C@@](O)(C(C)=O)C[C@@H]3O[C@H]1C[C@H](N)[C@H](O)[C@H](C)O1` [DAUN, Daunorubicin], the “reduction to daunorubicinol by recombinant enzyme (DAUN 200-2000 μM), UHPLC, Mic” value in experiment [1] was “AKR1C3 was incubated with the substrate DAUN, with or without ZAN”.

A word on the Ki: it is a measure of affinity in units of concentration, obtained from inhibition or displacement. Regarding `C=CC(=O)N1CCC([C@@H]2CCNc3c(C(N)=O)c(-c4ccc(Oc5ccccc5)cc4)nn32)CC1` [ZAN, Zanubrutinib], the Ki in experiment [2] worked out at 2900 nM.

These data come from paper PMC9611657, “Bruton’s Tyrosine Kinase Inhibitor Zanubrutinib Effectively Modulates Cancer Resistance by Inhibiting Anthracycline Metabolism and Efflux” (Pharmaceutics, 2022).
